In patent publication US9321788B2, “Tricyclic antibiotics” (BASILEA PHARMACEUTICA AG, priority 2011, dated 2016):

How the values were obtained:
[1] = tested on: Streptococcus pneumoniae ATCC49619; test: Antimicrobial activity assay (MIC, broth microdilution, CAMHB with 5% horse serum); type: cell-based
Method: (§1) Antimicrobial Activity Assay
(§2) The antibacterial activity of compounds is determined by the minimal inhibitory concentration (MIC) method. MICs for all bacteria except pneumococci and Haemophilus influenzae are obtained by broth microdilution with cation-adjusted Mueller-Hinton broth (CAMHB; BBL), according to CLSI guidelines (National Committee for Clinical Laboratory Standards. 2003. Methods for dilution antimicrobial susceptibility tests for bacteria that grow aerobically, 5th ed.; a approved standard M7-A6. National Committee for Clinical Laboratory Standards, Wayne, Pa.), with the following modifications: (i) for pneumococci CAMHB is supplemented with 5% (^v/v) horse serum; (ii) for Haemophilus influenzae CAMHB is supplemented with 5% (^v/v) Fildes enrichment (BBL) (Pankuch, G. A., Hoellman, D. B., Lin, G., Bajaksouzian, S., Jacobs, M. R., and Appelbaum, P. C. 1998. Activity of HMR 3647 compared to those of five agents against Haemophilus influenzae and Moraxella catarrhalis by MIC determination and time-kill assay. Antimicrob. Agents Chemother. 42:3032-3034). Microtiter plates are incubated at 35° C. in ambient air for 20 to 24 h, then inspected using an illuminated microtiter plate reader fitted with a magnifying mirror (MIC 2000; Cooke Laboratory Products, Alexandria, Va.). Compounds of the present invention are tested against several bacteria strains comprising some Acinetobacter baumannii, Enterococcus faecalis, Enterococcus faecium, Escherichia coli, Haemophilus influenzae, Klebsiella pneumoniae, Pseudomonas aeruginosa, Staphylococcus aureus, Staphylococcus epidermidis, Streptococcus pyogenes; Enterobacter cloacae and Streptococcus pneumoniae.

[2] = tested on: Escherichia coli ATCC25922; test: Antimicrobial activity assay (MIC, broth microdilution); type: cell-based
Method: as §1
as §2, with “Compounds of the present invention are tested against several bacteria strains comprising some Acinetobacter baumannii, Enterococcus faecalis, Enterococcus faecium, Escherichia coli, Haemophilus influenzae, Klebsiella pneumoniae, Pseudomonas aeruginosa, Staphylococcus aureus, Staphylococcus epidermidis, Streptococcus pyogenes; Enterobacter cloacae and Streptococcus pneumoniae.” left out

Work on `COc1ccc2ncc3c(c2c1)CC(C[C@H]1CC[C@H](NC(=O)c2ccc4c(c2)NC(=O)CO4)CC1)CO3` (relative stereo) [Example 36, 3-oxo-3,4-dihydro-2H-benzo[1,4]oxazine-6-carboxylic acid [trans-4-(6-methoxy-3,4-dihydro-2H-1-oxa-9-aza-phenanthren-3-ylmethyl)-cyclohexyl]-amide] yielded an MIC [1] of no more than 8 µg/mL.

With `COc1ccc2ncc3c(c2c1)CC(C(O)[C@H]1CC[C@H](NC(=O)c2ccc4c(c2)NC(=O)CS4)CC1)O3` (relative stereo) [Example 59, 3-oxo-3,4-dihydro-2H-benzo[1,4]thiazine-6-carboxylic acid {trans-4-[hydroxy-(8-methoxy-1,2-dihydro-furo[2,3-c]quinolin-2-yl)-methyl]-cyclohexyl}-amide] the MIC [1] was no more than 8 µg/mL.

With `COc1ccc2ncc3c(c2n1)CC(CN1CCC(NC(=O)c2ccc4c(c2)NC(=O)CS4)CC1)O3` (stereo not drawn) [Example 54, 3-oxo-3,4-dihydro-2H-benzo[1,4]thiazine-6-carboxylic acid [1-(8-methoxy-1,2-dihydro-3-oxa-5,9-diaza-cyclopenta[a]naphthalen-2-ylmethyl)-piperidin-4-yl]-amide] the MIC [1] was no more than 8 µg/mL.

With `COc1ccc2ncc3c(c2c1)CC(CN1CC(NC(=O)c2ccc4c(c2)NC(=O)CS4)CC1CO)CS3` (stereo not drawn) [Example 51, 3-oxo-3,4-dihydro-2H-benzo[1,4]thiazine-6-carboxylic acid [5-hydroxymethyl-1-(6-methoxy-3,4-dihydro-2H-1-thia-9-aza-phenanthren-3-ylmethyl)-pyrrolidin-3-yl]-amide] the MIC [1] was no more than 8 µg/mL.

Compound `COc1ccc2ncc3c(c2c1)CC(Cn1cc(NC(=O)c2ccc4c(c2)NC(=O)CS4)cn1)CO3` (stereo not drawn) [Example 31, 3-oxo-3,4-dihydro-2H-benzo[1,4]thiazine-6-carboxylic acid [1-(6-methoxy-3,4-dihydro-2H-1-oxa-9-aza-phenanthren-3-ylmethyl)-1H-pyrazol-4-yl]-amide] has an MIC [1] of no more than 8 µg/mL.

`COc1ccc2ncc3c(c2c1)CC(CN1CCC(NC(=O)c2ccc4c(c2)NC(=O)CS4)CC1)O3` (stereo not drawn) [Example 55, 3-oxo-3,4-dihydro-2H-benzo[1,4]thiazine-6-carboxylic acid [1-(8-methoxy-1,2-dihydro-furo[2,3-c]quinolin-2-ylmethyl)-piperidin-4-yl]-amide] was tested, and the MIC [1] was no more than 8 µg/mL.

For `COc1ccc2ncc3c(c2c1)OC(CN1CC(NC(=O)c2ccc4c(c2)NC(=O)CS4)C1)C3` (stereo not drawn) [Example 39, 3-oxo-3,4-dihydro-2H-benzo[1,4]thiazine-6-carboxylic acid [1-(8-methoxy-2,3-dihydro-furo[3,2-c]quinolin-2-ylmethyl)-azetidin-3-yl]-amide], the MIC [1] was no more than 8 µg/mL.

For `COc1ccc2ncc3c(c2n1)CC(CN1CCC(NC(=O)c2ccc4c(c2)NC(=O)CS4)CC1)CO3` (stereo not drawn) [Example 1, 3-oxo-3,4-dihydro-2H-benzo[1,4]thiazine-6-carboxylic acid [1-(6-methoxy-3,4-dihydro-2H-1-oxa-5,9-diaza-phenanthren-3-ylmethyl)-piperidin-4-yl]-amide], the MIC [1] was no more than 8 µg/mL and the MIC [2] was no more than 8 µg/mL.

For `COc1ccc2ncc3c(c2c1F)CC(CN1CCC(NC(=O)c2ccc4c(c2)NC(=O)CS4)CC1)CO3` (stereo not drawn) [Example 45, 3-oxo-3,4-dihydro-2H-benzo[1,4]thiazine-6-carboxylic acid [1-(5-fluoro-6-methoxy-3,4-dihydro-2H-1-oxa-9-aza-phenanthren-3-ylmethyl)-piperidin-4-yl]-amide], the MIC [1] was no more than 8 µg/mL.

In the case of `COc1ccc2ncc3c(c2c1)CC(CN1CC(NC(=O)c2ccc4c(c2)NC(=O)CS4)C1)CS3` (stereo not drawn) [Example 49, 3-oxo-3,4-dihydro-2H-benzo[1,4]thiazine-6-carboxylic acid [1-(6-methoxy-3,4-dihydro-2H-1-thia-9-aza-phenanthren-3-ylmethyl)-azetidin-3-yl]-amide], the MIC [1] is reported as no more than 8 µg/mL.

Compound `COc1ccc2ncc3c(c2c1)CC(CN1CCC(NCc2ccc4c(c2)NC(=O)CS4)CC1)CO3` (stereo not drawn) [Example 34, 6-{[1-(6-methoxy-3,4-dihydro-2H-1-oxa-9-aza-phenanthren-3-ylmethyl)-piperidin-4-ylamino]-methyl}-4H-benzo[1,4]thiazin-3-one] has an MIC [1] of no more than 8 µg/mL.
